Test results published in patent US10301308B2, “Azetidine derivatives for tau imaging” (Eli Lilly and Company, priority 2015, dated 2019).

Legend:
tau protein = assay: Clinical PET imaging of tau protein in the brain (SUVr); format: in vivo, human
Protocol: Clinical evaluation of 3-(3-[18F]-Fluoroazetidin-1-yl)-8-methylbenzo[4,5]imidazo[1,2-a]pyridine (Compound 8) as a PET radioligand for imaging tau protein deposition in patients with AD or other neurodegenerative disorders is conducted in healthy volunteers. AD patients, or Chronic Traumatic Encephalopathy (CTE) subjects, by completion of one or more PET scans with Compound 8. Dynamic PET imaging is acquired on a Siemens ECAT EXACT HR+ over 150 minutes following Compound 8 or [18F]AV-1451 injection (0-60 and 90-150 minute imaging segments). Compound 8 or [18F]AV-1451 scans are acquired similarly in two imaging sessions. A brain MRI is also obtained. PET and MRI images are aligned and normalized, and ATLAS-based volumes of interest (VOI) are applied to the dynamic PET series. Compound 8 or [18F]AV-1451 are evaluated in terms of kinetic profile as well as target region to cerebellum standardized uptake value ratio (SUVr between 100-120 min) between healthy volunteers and AD or CTE subjects.

[1] = Mouse PET/CT time activity curves; format: in vivo, CD-1 wild type mice
Protocol: Dynamic Micro-Positron Emission Tomography (mPET) images are obtained from CD-1 wild type mice using 3-(3-[18F]-fluoroazetidin-1-yl)-8-methylbenzo[4,5]imidazo[1,2-a]pyridine. Micro-Computed Tomography (mCT) of each subject is used as anatomical reference for image analysis. Biodistribution of the tracer in brain, muscle, bone, liver, and kidney is assessed by generating Time Activity Curves (TAC) using the fused mPET/mCT images. An INVEON multimodality scanner (Siemens, Germany) is used for mPET/mCT. All animal work is performed in accordance with the University of Sciences Institutional Animal Care & Use Committee-approved procedures.
Animals are anesthetized with 3% isoflurane/97% oxygen and are placed on the scanner bed. A short high-resolution CT scan is first performed for anatomical registration, followed by a 120-minute PET scan. During the PET scan a water heating system is placed underneath the bed to help maintain the body temperature. Within 3 minutes after the beginning of the PET acquisition, the [18F]-labeled compound 3-(3-[18F]-fluoroazetidin-1-yl)-8-methylbenzo[4,5]imidazo[1,2-a]pyridine is administered to the animals via tail vein injection (250 uCi in a total volume of 200 uL saline). A PET image is generated for each minute of the acquisition time. Uptake of the tracer is obtained by visually drawing regions of interest based on the fused PET/CT images, and the corresponding activity values are determined using the INVEON Research Workplace software (Siemens, Germany). All values are represented as percent injected dose per gram (% ID/g).
The mouse PET/CT time activity curves of 3-(4-(2-[18F]-fluoroethyl)piperidin-1-yl)-8-methoxybenzo[4,5]imidazo[1,2-a]pyridine (T821) (See FIG. 9) and of 3-(4-[18F]-fluoropiperidin-1-yl)-8-methoxybenzo[4,5]imidazo[1,2-a]pyridine (T798) (See FIG. 10) are obtained as described in Assay Example 7 (T821 and T798 are recited in US2011/0182812). […] Therefore, when imaging with T821 and/or T798, the undesirable non-tau PET signals from the skull bones could interfere with desired tau signals from the brain cortex. Thus, in addition to the lack of selectivity for T821 and T798, these compounds would further represent poor candidates for human brain tau PET tracers because of the interfering radioactivity signal from bone. […] The advantageous properties of Compound 8 are useful to provide enhanced tau PET imaging in humans. This combination of critical properties was not known and could not have been predicted from existing tau imaging compounds.

[2] = mouse PET/CT time activity curves
[3] = tail vein injection, 120-minute PET scan

bone uptake of radioactivity [1, 2]: negligible radioactivity signal in bone
brain entry compared with [18F]AV-1451 [1, 3]: higher % ID/g than [18F]AV-1451
clearance from brain [1, 3]: cleared quickly
Compound: Cc1ccc2nc3cc(N4CC([18F])C4)ccn3c2c1 [Compound 8, 3-(3-[18F]-fluoroazetidin-1-yl)-8-methylbenzo[4,5]imidazo[1,2-a]pyridine]
SUVr values compared to [18F]AV-1451 (tau protein; AD subjects): slightly higher SUVr values compared to [18F]AV-1451
mean SUVr averaged over all regions (tau protein; AD subjects): ~1.6
uptake in cortical brain regions, AD subjects compared with healthy controls (tau protein; AD subjects vs healthy controls): Higher uptake
SUVr in other cortical regions (tau protein; CTE subject): ~1.0
SUVr in focal sub-regions with high uptake (tau protein; CTE subject, sub-regions of inferior lateral parietal, superior parietal and posterior temporal cortex): ~1.5
mean SUVr averaged over all regions (tau protein; healthy volunteer subjects): ~1.1
SUVr in cortical regions (tau protein; healthy volunteer subjects, target region to cerebellum): 1.0-1.1
brain uptake compared to T821 and T798 [1, 2]: significantly superior and surprising brain uptake
bone uptake of radioactivity ([1]; mouse PET/CT time activity curves, listed as 3-(3-[18F]-Fluoroazetidin-1-yl)-8-methylbenzo[4,5]imidazo[1,2-a]pyridine): no significant uptake of radioactivity in bone tissue
